Data: patent US11357862B2, “Peptide-conjugated nanoparticles for targeting, imaging, and treatment of prostate cancer” (Academia Sinica, priority 2016, dated 2022)

Assays:
[1] = Pharmacokinetics of doxorubicin formulations; assay type: in vivo, NOD/SCID mice; settings: 2 mg doxorubicin/kg, tail vein
Procedure: Blood samples were drawn at selected time points, and quantities of doxorubicin were analyzed.

[2] = test system: PC3-Luc orthotopic tumors; experiment: Orthotopic implantation and therapeutic study; assay type: in vivo, SCID mice; settings: doxorubicin 1 mg/kg, vinorelbine 2 mg/kg i.v. twice a week, docetaxel 5 mg/kg i.p. once a week, 4 weeks
Procedure: PC3 cells were transfected with Lenti-Luc virus (lentivirus containing the luciferase gene), and a stable PC3-Luc cell line was selected by puromycin screening. PC3-Luc cells (5×10^5 cells in 20 μl PBS per mouse) were orthotopically transplanted into the dorsal lobe of the prostate of SCID mice after anaesthesia with Avertin at a dose of 250 mg/kg. Seven days later, all mice bearing tumors were randomly divided into five groups (n=8 per group) based on photon flux indices detected using Xenogen IVIS® 200 Luminal Image. Tumor-bearing mice were treated with different formulations of anti-cancer drugs or PBS. Tumor development was recorded every 7 days. The body weights and survival rates were measured.
Mice were injected with vehicle (PBS), docetaxel (5 mg/kg), liposomal drugs, or targeting liposomal drugs (doxorubicin 1 mg/kg; vinorelbine 2 mg/kg).

[3] = test system: PC3 prostate cancer xenografts; experiment: Immunohistochemical localization of phages after i.v. injection; assay type: in vivo, SCID mice; settings: co-injected with PC204
Procedure: (§1) SCID mice were injected s.c. with 5×10^6 prostate cancer cells. Once the prostate cancer xenografts reached a suitable size (about 200˜300 mm^3), the mice were injected i.v. with 2×10^9 pfu phages in the presence or absence of 100 μg synthetic peptides. After ten minutes, the mice were sacrificed and perfused with 50 ml PBS to remove unbound phages. Selected organs and xenograft tumors were removed, and the phage titer recovered by E. coli strain ER2738 was measured using IPTG/X-Gal spray. Partial organs and tumors were embedded using optimal cutting temperature compound (O.C.T.) to prepare sections for immunohistochemical staining.
The tissue samples from in vivo phage homing experiments were embedded in frozen blocks. Phage distribution in each tissue was assessed by first removing O.C.T. with cold PBS, and then fixing the frozen sections with 4% paraformaldehyde for 10 min. The sections were incubated with 1% BSA for 30 min to block non-specific binding. After washing, the sections were incubated with mouse anti-M13 antibodies at a dilution of 1:250 for 1 hour, followed by treatment with polymer-based SUPER SENSITIVE™ IC detection system. In brief, the sections were incubated with SUPER […]™ reagent for 20 min and poly-HRP reagent for 30 min. DAB was used as a chromogen to visualize peroxidase activity, and the reaction was stopped by the addition of PBS. […]

[4] = test system: PC3 prostate cancer xenografts; experiment: In vivo phage homing and peptide competitive inhibition; set-up: species or system SCID mice; settings: co-injection with PC204
Procedure: as §1

[5] = test system: DU145 prostate cancer xenografts; experiment: as above; set-up: species or system SCID mice; settings: co-injection with PC204
Procedure: as §1

With `COc1cccc2c1C(=O)c1c(O)c3c(c(O)c1C2=O)C[C@@](O)(C(=O)CO)C[C@@H]3O[C@H]1C[C@H](N)[C@H](O)[C@H](C)O1` [FD, doxorubicin] the “plasma pharmacokinetic profile of doxorubicin” value [1] was “poor pharmacokinetic profile”.
With `CC(=O)O[C@@]12CO[C@@H]1C[C@H](O)[C@@]1(C)C(=O)[C@H](O)C3=C(C)[C@@H](OC(=O)[C@H](O)[C@@H](NC(=O)OC(C)(C)C)c4ccccc4)C[C@@](O)([C@@H](OC(=O)c4ccccc4)[C@H]21)C3(C)C` [docetaxel] the median survival times [2] was 58 days.
In the case of “SP204: synthetic targeting peptide KQFSALPFNFYT, SEQ ID NO: 8, the ligand displayed on phage PC204 (Phage clone No. 204 displayed peptide sequence)”, the “phage immunoreactivity in tumor tissue on co-injection of PC204 with peptide” value [3] was “no immunoreactivity was observed”, the “inhibition of PC204 binding to tumor tissue by co-injected peptide” value [4] was 5.2 fold and the “inhibition of PC204 binding to tumor tissue by co-injected peptide” value [5] was 2.87 fold.
